#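 Interpolation was linear, between the two tested concentrations surrounding the appropriate level; five concentrations were tested over 48 hours in 96-well plates. Abbreviation: GI50, concentration required for 50% inhibition of growth. TGI denotes the concentration required for complete inhibition of growth.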
# What was measured:
# Experiment in all cases: NCI tumour cell line growth inhibition, 48 h
# [1] = test system: EKVX NSCLC
# [2] = test system: NCI-H460 lung
# [3] = test system: NCI-H23 lung
# [4] = test system: CCRF-CEM leukemia
# [5] = test system: OVCAR-8 ovarian
# [6] = test system: KM12 colon
# [7] = test system: OVCAR-5 ovarian
# [8] = test system: M14 melanoma
# [9] = test system: UACC-62 melanoma
# [10] = test system: K-562 leukemia
# [11] = test system: U251 CNS
# [12] = test system: SNB-75 CNS
# [13] = test system: HT29 colon
# [14] = test system: BT-549 breast
# [15] = test system: IGROV1 ovarian
# [16] = test system: MDA-MB-435
# [17] = test system: SF-268 CNS
# [18] = test system: HL-60(TB) leukemia
# [19] = test system: MDA-MB-231 breast
# [20] = test system: PC-3 prostate
# [21] = test system: SK-MEL-28 melanoma
# [22] = test system: T-47D breast
# [23] = test system: HCT-15 colon
# [24] = test system: SF-295 CNS
# [25] = test system: HOP-62 NSCLC
# [26] = test system: HOP-92 NSCLC
# [27] = test system: MOLT-4 leukemia
# [28] = test system: UO-31 renal
# [29] = test system: 786-0 renal
# [30] = test system: SF-539 CNS
# [31] = test system: HS 578T breast
# [32] = test system: A549 NSCLC
# [33] = test system: NCI-H522 lung
# [34] = test system: A498 renal
# [35] = test system: TK-10 renal
# [36] = test system: SK-MEL-5 melanoma
# [37] = test system: RXF 393 renal
# [38] = test system: RPMI-8226 leukemia
# [39] = test system: SNB-19 CNS
# [40] = test system: SW-620 colon
# [41] = test system: COLO 205 colon
# [42] = test system: CAKI-1 renal
# [43] = test system: MCF7 breast
# [44] = test system: UACC-257 melanoma
# [45] = test system: ACHN renal
# [46] = test system: NCI-H226 lung
# [47] = test system: SK-MEL-2 melanoma
# [48] = test system: DU-145 prostate
# [49] = test system: HCC-2998 colon
# [50] = test system: NCI/ADR-RES ovarian
# [51] = test system: MALME-3M melanoma
# [52] = test system: SN12C renal
# [53] = test system: OVCAR-4 ovarian
# [54] = test system: SK-OV-3 ovarian
# [55] = test system: HCT-116 colon
smiles,measurement,setting,value
C#Cc1nc(C(=O)NCCC(=O)Nc2ccc(NC(=O)c3ccc(/C=C/C(=O)c4nccn4C)cc3)cc2)cs1,GI50,[1],2790 nM
same,TGI,[1],> 50000 nM
same,GI50,[2],1570 nM
same,TGI,[2],4600 nM
same,GI50,[3],1220 nM
same,TGI,[3],3410 nM
same,GI50,[4],954 nM
same,TGI,[4],2320 nM
same,GI50,[5],1750 nM
same,TGI,[5],> 50000 nM
same,GI50,[6],2880 nM
same,TGI,[6],32500 nM
same,GI50,[7],1580 nM
same,TGI,[7],4940 nM
same,GI50,[8],3430 nM
same,TGI,[8],20800 nM
same,GI50,[9],3010 nM
same,TGI,[9],10900 nM
same,GI50,[10],1200 nM
same,TGI,[10],> 50000 nM
same,GI50,[11],886 nM
same,TGI,[11],2040 nM
same,GI50,[12],1430 nM
same,TGI,[12],9710 nM
same,GI50,[13],1130 nM
same,TGI,[13],2540 nM
same,GI50,[14],1760 nM
same,TGI,[14],11300 nM
same,GI50,[15],878 nM
same,TGI,[15],1800 nM
same,GI50,[16],1710 nM
same,TGI,[16],6790 nM
same,GI50,[17],1720 nM
same,TGI,[17],13300 nM
same,GI50,[18],857 nM
same,TGI,[18],2530 nM
same,GI50,[19],1130 nM
same,TGI,[19],2600 nM
same,GI50,[20],1380 nM
same,TGI,[20],3880 nM
same,GI50,[21],7000 nM
same,TGI,[21],29900 nM
same,GI50,[22],2220 nM
same,TGI,[22],> 50000 nM
same,GI50,[23],850 nM
same,TGI,[23],1980 nM
same,GI50,[24],2370 nM
same,TGI,[24],8430 nM
same,GI50,[25],1150 nM
same,TGI,[25],2830 nM
same,GI50,[26],1070 nM
same,TGI,[26],2780 nM
same,GI50,[27],1290 nM
same,TGI,[27],3530 nM
same,GI50,[28],763 nM
same,TGI,[28],1490 nM
same,GI50,[29],939 nM
same,TGI,[29],1760 nM
same,GI50,[30],911 nM
same,TGI,[30],1670 nM
same,GI50,[31],4550 nM
same,TGI,[31],> 50000 nM
same,GI50,[32],2230 nM
same,TGI,[32],> 50000 nM
same,GI50,[33],1040 nM
same,TGI,[33],2270 nM
same,GI50,[34],7390 nM
same,TGI,[34],19200 nM
same,GI50,[35],8940 nM
same,TGI,[35],> 50000 nM
same,GI50,[36],3130 nM
same,TGI,[36],11100 nM
same,GI50,[37],1040 nM
same,TGI,[37],2750 nM
same,GI50,[38],934 nM
same,TGI,[38],2200 nM
same,GI50,[39],1830 nM
same,TGI,[39],7400 nM
same,GI50,[40],1230 nM
same,TGI,[40],2830 nM
same,GI50,[41],4950 nM
same,TGI,[41],47000 nM
same,GI50,[42],2410 nM
same,TGI,[42],20100 nM
same,GI50,[43],1260 nM
same,TGI,[43],4980 nM
same,GI50,[44],18700 nM
same,TGI,[44],> 50000 nM
same,GI50,[45],899 nM
same,TGI,[45],1660 nM
same,GI50,[46],1350 nM
same,TGI,[46],4020 nM
same,GI50,[47],35800 nM
same,TGI,[47],> 50000 nM
same,GI50,[48],2320 nM
same,TGI,[48],> 50000 nM
same,GI50,[49],2140 nM
same,TGI,[49],7950 nM
same,GI50,[50],3270 nM
same,TGI,[50],> 50000 nM
same,GI50,[51],1400 nM
same,TGI,[51],4640 nM
same,GI50,[52],1300 nM
same,TGI,[52],4490 nM
same,GI50,[53],24900 nM
same,TGI,[53],> 50000 nM
same,GI50,[54],11500 nM
same,TGI,[54],> 50000 nM
same,GI50,[55],1000 nM
same,TGI,[55],2100 nM

# From PubChem BioAssay (NCI)
